Among the data in patent publication US20120101100A1 (priority 2008, published 2012) are inhibition values, retold here.

The target in the assay is S. aureus GyrB ATPase (Staphylococcus aureus, UniProt P0A0K8). Description: S. aureus (SAU) GyrB ATPase inhibition, malachite green phosphate detection (E. coli GyrA + S. aureus GyrB). In kind it is biochemical. Particulars: compound concentration of 1.0 μM unless otherwise noted; average value where assay was carried out more than once; read-out: S. aureus (SAU) GyrB ATPase % Inhibition. The procedure, abridged: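 Phosphate from ATP hydrolysis (500 μM ATP) read as malachite green/molybdate absorbance at 650 nm after acid quench. Reaction: 1.25 nM S. aureus GyrB plus 1.25 nM E. coli GyrA, sheared DNA, Hepes pH 7.5 with Mg2+. IC50 fitted over 10 concentrations, normalised to DMSO (2%) and novobiocin (2 μM) controls.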
Chain of S. aureus GyrB ATPase (P0A0K8 whole entry): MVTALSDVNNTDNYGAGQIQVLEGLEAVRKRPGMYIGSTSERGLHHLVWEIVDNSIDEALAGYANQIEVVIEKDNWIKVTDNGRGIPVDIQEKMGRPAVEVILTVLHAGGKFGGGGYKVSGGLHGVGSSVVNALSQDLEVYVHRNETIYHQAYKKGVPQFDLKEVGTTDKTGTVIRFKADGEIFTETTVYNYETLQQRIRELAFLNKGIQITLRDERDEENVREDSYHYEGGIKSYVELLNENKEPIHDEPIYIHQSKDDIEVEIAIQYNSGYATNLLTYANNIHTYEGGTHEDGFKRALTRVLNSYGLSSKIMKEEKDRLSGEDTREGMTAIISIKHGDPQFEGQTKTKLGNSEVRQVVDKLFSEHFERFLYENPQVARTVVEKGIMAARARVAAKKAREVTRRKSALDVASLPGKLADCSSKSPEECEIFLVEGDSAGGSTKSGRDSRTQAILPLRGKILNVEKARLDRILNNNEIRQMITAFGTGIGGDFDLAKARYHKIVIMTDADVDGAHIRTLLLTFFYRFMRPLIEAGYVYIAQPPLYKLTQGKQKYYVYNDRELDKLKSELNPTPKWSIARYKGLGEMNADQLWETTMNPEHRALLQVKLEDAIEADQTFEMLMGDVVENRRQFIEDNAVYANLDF
Chain of S. aureus GyrB ATPase (P0AES4 whole entry, further chain): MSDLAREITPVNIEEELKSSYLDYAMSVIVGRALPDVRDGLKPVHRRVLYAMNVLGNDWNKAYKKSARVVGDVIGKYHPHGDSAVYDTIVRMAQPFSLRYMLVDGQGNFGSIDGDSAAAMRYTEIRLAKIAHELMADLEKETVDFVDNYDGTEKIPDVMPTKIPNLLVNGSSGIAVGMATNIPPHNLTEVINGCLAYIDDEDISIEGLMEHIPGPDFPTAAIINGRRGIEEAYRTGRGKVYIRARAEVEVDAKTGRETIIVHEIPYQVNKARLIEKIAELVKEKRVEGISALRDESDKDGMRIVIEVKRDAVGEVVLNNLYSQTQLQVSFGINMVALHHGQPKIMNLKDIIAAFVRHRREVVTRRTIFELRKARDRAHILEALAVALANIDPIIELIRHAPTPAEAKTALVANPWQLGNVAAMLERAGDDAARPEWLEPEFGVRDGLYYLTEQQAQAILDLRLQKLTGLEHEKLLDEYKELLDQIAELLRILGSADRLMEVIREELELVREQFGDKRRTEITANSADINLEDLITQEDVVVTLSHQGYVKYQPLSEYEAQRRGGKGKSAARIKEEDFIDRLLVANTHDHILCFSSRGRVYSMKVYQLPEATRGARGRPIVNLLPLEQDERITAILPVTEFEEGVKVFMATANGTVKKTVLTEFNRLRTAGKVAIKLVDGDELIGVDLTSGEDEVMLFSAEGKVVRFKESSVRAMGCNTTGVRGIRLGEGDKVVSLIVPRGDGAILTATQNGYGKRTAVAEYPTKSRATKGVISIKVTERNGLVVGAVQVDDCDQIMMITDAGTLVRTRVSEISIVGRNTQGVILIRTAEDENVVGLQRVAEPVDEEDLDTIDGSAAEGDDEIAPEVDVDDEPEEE
Broadly, the inhibition is the drop in the measured response relative to a control, in per cent. `CCNC(=O)Nc1cc(-c2nc(C(F)(F)F)cs2)c(-c2cc(-c3n[nH]c(=O)o3)cnc2OC2CCN(C)CC2)cn1` [Example 215]: the inhibition at 1 µM came out at 96%.
The result for `CCNC(=O)Nc1cc(-c2nc(C(F)(F)F)cs2)c(-c2cc(-c3n[nH]c(=O)o3)cnc2OCC2CC2)cn1` [Example 216] reads 96%; that for `CCNC(=O)Nc1cc(-c2nc(C(F)(F)F)cs2)c(-c2cc(-c3n[nH]c(=O)o3)cnc2OC2CCCC2)cn1` [Example 217], 95%.
The figure for `CCNC(=O)Nc1cc(-c2nc(C(F)(F)F)cs2)c(-c2cc(-c3n[nH]c(=O)o3)cnc2OC2CC(C)(C)N(C)C(C)(C)C2)cn1` [Example 218] is 99%; for `CCNC(=O)Nc1cc(-c2nc(C(F)(F)F)cs2)c(-c2cc(-c3n[nH]c(=O)o3)cnc2OC2CCN(C(C)C)CC2)cn1` [Example 219] it is 97%.
As to `CCNC(=O)Nc1cc(-c2nc(C(F)(F)F)cs2)c(-c2cc(-c3n[nH]c(=O)o3)cnc2OCCCC2CCCC2)cn1` [Example 220], the inhibition at 1 µM was 91%.
With `CCNC(=O)Nc1cc(-c2nc(-c3cnn(C)c3)cs2)c(-c2cc(-c3n[nH]c(=O)o3)cnc2OCC2CC2)cn1` [Example 221], the inhibition at 1 µM turned out to be 99%.
As for `CCNC(=O)Nc1cc(-c2nc(-c3cnn(C)c3)cs2)c(-c2cc(-c3n[nH]c(=O)o3)cnc2OC2CCOCC2)cn1` [Example 222], the inhibition at 1 µM stood at 97%.
The figure for `CCNC(=O)Nc1cc(-c2nc(C(F)(F)F)cs2)c(-c2cc(-c3n[nH]c(=O)o3)cnc2OCC2CCN(C)CC2)cn1` [Example 223] is 95%.
The figure for `CCNC(=O)Nc1cc(-c2nc(C(F)(F)F)cs2)c(-c2cc(-c3n[nH]c(=O)o3)cnc2OCCC2CCCN2C)cn1` (centres unmarked) [Example 224] is 94%; for `CCNC(=O)Nc1cc(-c2nc(C(F)(F)F)cs2)c(-c2cc(-c3n[nH]c(=O)o3)cnc2OC[C@@H](C)O)cn1` [Example 225] it is 117%.
Consider `CCNC(=O)Nc1cc(-c2nc(C(F)(F)F)cs2)c(-c2cc(-c3n[nH]c(=O)o3)cnc2OC[C@H](C)O)cn1` [Example 226], for which the inhibition at 1 µM is 109%.
Consider `CCNC(=O)Nc1cc(-c2nc(C(F)(F)F)cs2)c(-c2cc(-c3n[nH]c(=O)o3)cnc2OC2C[C@H]3CC[C@@H](C2)N3C)cn1` (some centres unmarked) [Example 227], for which the inhibition at 1 µM stood at 100%.
The figure for `CCNC(=O)Nc1cc(-c2nc(C(F)(F)F)cs2)c(-c2ccnc(-c3nnc(C)o3)c2)cn1` [Example 228] is 93%.
Consider `CCNC(=O)Nc1cc(-c2nnc(-c3ccccc3)o2)c(-c2ccnc(-c3nnc(C)o3)c2)cn1` [Example 229], for which the inhibition at 1 µM is 99%.
The result for `CCNC(=O)Nc1cc(-c2nnc(-c3ccccc3)o2)c(-c2ncc(-c3nnc(C)o3)s2)cn1` [Example 230] reads 91%; that for `CCNC(=O)Nc1cc(-c2nc(-c3cnn(C)c3)cs2)c(-c2cc(-c3nnc(C)o3)cnc2OC2CCOCC2)cn1` [Example 231, 1-ethyl-3-(5′-(5-methyl-1,3,4-oxadiazol-2-yl)-4-(4-(1-methyl-1H-pyrazol-4-yl)thiazol-2-yl)-2′-(tetrahydro-2H-pyran-4-yloxy)-3,3′-bipyridin-6-yl)urea], 96%.
The figure for `CCNC(=O)Nc1cc(-c2nc(-c3cccnc3OCCOC)cs2)c(-c2cc(-c3nnc(C)o3)cnc2OC2CCOCC2)cn1` [Example 232, 1-ethyl-3-(4-(4-(2-(2-methoxyethoxy)pyridin-3-yl)thiazol-2-yl)-5′-(5-methyl-1,3,4-oxadiazol-2-yl)-2′-(tetrahydro-2H-pyran-4-yloxy)-3,3′-bipyridin-6-yl)urea] is 99%; for `CCNC(=O)Nc1cc(-c2nc(-c3cnn(C)c3)cs2)c(-c2cncc(-c3nnc(C)o3)c2)cn1` [Example 233, 1-ethyl-3-(5′-(5-methyl-1,3,4-oxadiazol-2-yl)-4-(4-(1-methyl-1H-pyrazol-4-yl)thiazol-2-yl)-3,3′-bipyridin-6-yl)urea] it is 100%.
`CCNC(=O)Nc1cc(-c2nc(C(F)(F)F)cs2)c(-c2cc(-c3nnc(C)o3)cnc2OCC2CC2)cn1` [Example 234, 1-(2′-(cyclopropylmethoxy)-5′-(5-methyl-1,3,4-oxadiazol-2-yl)-4-(4-(trifluoromethyl)thiazol-2-yl)-3,3′-bipyridin-6-yl)-3-ethylurea]: the inhibition at 1 µM is 105%.
The figure for `CCNC(=O)Nc1cc(-c2nc(C3CCCC3)cs2)c(-c2cncc(-c3nnc(C)o3)c2)cn1` [Example 235, 1-(4-(4-cyclopentylthiazol-2-yl)-5′-(5-methyl-1,3,4-oxadiazol-2-yl)-3,3′-bipyridin-6-yl)-3-ethylurea] is 101%; for `CCNC(=O)Nc1cc(-c2nc(C3CCCCC3)cs2)c(-c2cncc(-c3nnc(C)o3)c2)cn1` [Example 236, 1-(4-(4-cyclohexylthiazol-2-yl)-5′-(5-methyl-1,3,4-oxadiazol-2-yl)-3,3′-bipyridin-6-yl)-3-ethylurea] it is 109%; for `CCNC(=O)Nc1cc(-c2nc(C(F)(F)F)cs2)c(-c2cncc(-c3nnc([C@H](C)O)o3)c2)cn1` [Example 237, (S)-1-ethyl-3-(5′-(5-(1-hydroxyethyl)-1,3,4-oxadiazol-2-yl)-4-(4-(trifluoromethyl)thiazol-2-yl)-3,3′-bipyridin-6-yl)urea] it is 110%.
The figure for `CCNC(=O)Nc1cc(-c2nc(C(F)(F)F)cs2)c(-c2cncc(-c3nnc([C@@H](N)C4CCCCC4)o3)c2)cn1` [Example 238, (S)-1-(5′-(5-(amino(cyclohexyl)methyl)-1,3,4-oxadiazol-2-yl)-4-(4-(trifluoromethyl)thiazol-2-yl)-3,3′-bipyridin-6-yl)-3-ethylurea] is 96%.
The result for `CCNC(=O)Nc1cc(-c2nc(C(F)(F)F)cs2)c(-c2cncc(-c3nnc([C@@H]4COCCN4)o3)c2)cn1` [Example 239, (S)-1-ethyl-3-(5′-(5-(morpholin-3-yl)-1,3,4-oxadiazol-2-yl)-4-(4-(trifluoromethyl)thiazol-2-yl)-3,3′-bipyridin-6-yl)urea] reads 94%; that for `CCNC(=O)Nc1cc(-c2nc(C(F)(F)F)cs2)c(-c2cncc(-c3nnc([C@H]4COCCN4)o3)c2)cn1` [Example 240, (R)-1-ethyl-3-(5′-(5-(morpholin-3-yl)-1,3,4-oxadiazol-2-yl)-4-(4-(trifluoromethyl)thiazol-2-yl)-3,3′-bipyridin-6-yl)urea], 95%; that for `CCNC(=O)Nc1cc(-c2nc(C(F)(F)F)cs2)c(-c2ccnc(-c3nnc([C@@H](N)C4CCCCC4)o3)c2)cn1` [Example 241, (S)-1-(2′-(5-(amino(cyclohexyl)methyl)-1,3,4-oxadiazol-2-yl)-4-(4-(trifluoromethyl)thiazol-2-yl)-3,4′-bipyridin-6-yl)-3-ethylurea], 97%.
For the compound `CCNC(=O)Nc1cc(-c2nc(C(F)(F)F)cs2)c(-c2ccnc(-c3nnc([C@@H]4COCCN4)o3)c2)cn1` [Example 242, (S)-1-ethyl-3-(2′-(5-(morpholin-3-yl)-1,3,4-oxadiazol-2-yl)-4-(4-(trifluoromethyl)thiazol-2-yl)-3,4′-bipyridin-6-yl)urea], the inhibition at 1 µM is 118%.
The result for `CCNC(=O)Nc1cc(-c2nc(C(F)(F)F)cs2)c(-c2ccnc(-c3nnc([C@H]4COCCN4)o3)c2)cn1` [Example 243, (R)-1-ethyl-3-(2′-(5-(morpholin-3-yl)-1,3,4-oxadiazol-2-yl)-4-(4-(trifluoromethyl)thiazol-2-yl)-3,4′-bipyridin-6-yl)urea] reads 122%; that for `CCNC(=O)Nc1cc(-c2nc(C(F)(F)F)cs2)c(-c2ccnc(-c3nnc([C@@H](NC)C(C)C)o3)c2)cn1` [Example 244, (S)-1-ethyl-3-(2′-(5-(2-methyl-1-(methylamino)propyl)-1,3,4-oxadiazol-2-yl)-4-(4-(trifluoromethyl)thiazol-2-yl)-3,4′-bipyridin-6-yl)urea], 96%; that for `CCNC(=O)Nc1cc(-c2nc(-c3cccc(OC)n3)cs2)c(-c2cncc(S(N)(=O)=O)c2)cn1` [Example 247, 6′-(3-ethylureido)-4′-(4-(6-methoxypyridin-2-yl)thiazol-2-yl)-3,3′-bipyridine-5-sulfonamide], 100%.
Take `CCNC(=O)Nc1cc(-c2nc(-c3cccc(OC)n3)cs2)c(-c2ccnc(-c3n[nH]c(=O)o3)c2)cn1` [Example 248, 1-ethyl-3-(4-(4-(6-methoxypyridin-2-yl)thiazol-2-yl)-2′-(5-oxo-4,5-dihydro-1,3,4-oxadiazol-2-yl)-3,4′-bipyridin-6-yl)urea]: the inhibition at 1 µM was determined as 104%.
The result for `CCNC(=O)Nc1cc(-c2nc(-c3cccc(OC)n3)cs2)c(-c2ccnc(-c3nnc(C)o3)c2)cn1` [Example 249, 1-ethyl-3-(4-(4-(6-methoxypyridin-2-yl)thiazol-2-yl)-2′-(5-methyl-1,3,4-oxadiazol-2-yl)-3,4′-bipyridin-6-yl)urea] reads 97%; that for `CCNC(=O)Nc1cc(-c2nc(-c3cccc(OC)n3)cs2)c(-c2cncc(-c3nnc(C)o3)c2)cn1` [Example 250, 1-ethyl-3-(4-(4-(6-methoxypyridin-2-yl)thiazol-2-yl)-5′-(5-methyl-1,3,4-oxadiazol-2-yl)-3,3′-bipyridin-6-yl)urea], 101%.
As for `CCNC(=O)Nc1cc(-c2nc(-c3cccc(OC)n3)cs2)c(-c2nc(-c3ncnn3C)c(-c3n[nH]c(=O)o3)s2)cn1` [Example 251, 1-ethyl-3-(4-(4-(6-methoxypyridin-2-yl)thiazol-2-yl)-5-(4-(1-methyl-1H-1,2,4-triazol-5-yl)-5-(5-oxo-4,5-dihydro-1,3,4-oxadiazol-2-yl)thiazol-2-yl)pyridin-2-yl)urea], the inhibition at 1 µM stood at 99%.
